Test results taken from the supplement of paper PMC5908809.

Assays:
[1] = system: normal NK cells expanded with K562-aAPC; assay: percent inhibition of viability; higher = more inhibition; conditions: 72 h, IL-2 2.5 ng/mL
Procedure: (§1)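 Drug sensitivity and resistance testing on K562-aAPC-expanded normal NK cells: 5 concentrations (10-fold steps over a 10,000-fold range), 72 h at 37 °C, viability by CellTiter-Glo normalised to DMSO and benzethonium chloride controls; DSS from the fitted curve.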

[2] = system: DERL-7 (IL-2 2.5 ng/mL); assay: as above; conditions: 72 h
[3] = system: IMC-1 (IL-2 20 ng/mL); assay: as above; conditions: 72 h
[4] = system: KAI3 (IL-2 2.5 ng/mL); assay: as above; conditions: 72 h
[5] = system: KHYG-1 (IL-2 2.5 ng/mL); assay: as above; conditions: 72 h
[6] = system: NK-92 (IL-2 2.5 ng/mL); assay: as above; conditions: 72 h
[7] = system: NK-YS (IL-2 2.5 ng/mL); assay: as above; conditions: 72 h
[8] = system: NKL (IL-2 2.5 ng/mL); assay: as above; conditions: 72 h
[9] = system: SNK-6 (IL-2 2.5 ng/mL); assay: as above; conditions: 72 h
[10] = system: YT (IL-2 2.5 ng/mL); assay: as above; conditions: 72 h
[11] = system: normal primary NK cells, pool 1 (3 donors) (IL-2 2.5 ng/mL); assay: as above; conditions: 72 h
[12] = system: normal primary NK cells, pool 1 (3 donors), resting (IL-2 0 ng/mL); assay: as above; conditions: 72 h
[13] = system: normal primary NK cells, pool 2 (3 donors) (IL-2 2.5 ng/mL); assay: as above; conditions: 72 h
[14] = system: normal primary NK cells, pool 3 (3 donors) (IL-2 2.5 ng/mL); assay: as above; conditions: 72 h
[15] = system: normal NK cells expanded with K562-aAPC; assay: drug sensitivity score (DSS) (DSS units); higher = more sensitive; extreme values may be limits of the assay; conditions: 72 h; IL-2 2.5 ng/mL
Procedure: as §1

[16] = system: DERL-7 (IL-2 2.5 ng/mL); assay: as above; conditions: 72 h
[17] = system: IMC-1 (IL-2 20 ng/mL); assay: as above; conditions: 72 h
[18] = system: KAI3 (IL-2 2.5 ng/mL); assay: as above; conditions: 72 h
[19] = system: KHYG-1 (IL-2 2.5 ng/mL); assay: as above; conditions: 72 h
[20] = system: NK-92 (IL-2 2.5 ng/mL); assay: as above; conditions: 72 h
[21] = system: NK-YS (IL-2 2.5 ng/mL); assay: as above; conditions: 72 h
[22] = system: NKL (IL-2 2.5 ng/mL); assay: as above; conditions: 72 h
[23] = system: SNK-6 (IL-2 2.5 ng/mL); assay: as above; conditions: 72 h
[24] = system: YT (IL-2 2.5 ng/mL); assay: as above; conditions: 72 h
[25] = system: normal primary NK cells, pool 1 (3 donors) (IL-2 2.5 ng/mL); assay: as above; conditions: 72 h
[26] = system: normal primary NK cells, pool 1 (3 donors), resting (IL-2 0 ng/mL); assay: as above; conditions: 72 h
[27] = system: normal primary NK cells, pool 2 (3 donors) (IL-2 2.5 ng/mL); assay: as above; conditions: 72 h
[28] = system: normal primary NK cells, pool 3 (3 donors) (IL-2 2.5 ng/mL); assay: as above; conditions: 72 h

CC(C)n1cnc2c(NCCc3ccc(O)cc3)nc(-c3csc4ccccc34)nc21 [StemRegenin 1] (max concentration tested 10000 nM)
percent inhibition of viability [%]
Conditions | 1 nM | 10 nM | 100 nM | 1000 nM | 10000 nM
[1] | -5.56 | -5.75 | -5.39 | -7.57 | 0.59
[2] | 2.23 | 15.4 | 50.9 | 71.1 | 96.4
[3] | -6.67 | -2.1 | -7.77 | -8.29 | 0.67
[4] | -8.14 | 3.68 | 6.57 | -0.19 | 76.8
[5] | -5.41 | -0.83 | 0.98 | 8.59 | 98.9
[6] | -11 | -16.6 | 1.48 | 39.2 | 97.7
[7] | -3.67 | -6.84 | -5.59 | 1.14 | 24.9
[8] | -9.52 | 0.88 | 5.6 | 18.4 | 80.4
[9] | -6.98 | 28.7 | -5.97 | -12.5 | 71.9
[10] | -5.32 | -2.81 | 0.29 | 5.57 | 71.9
[11] | -8.25 | -4.37 | -0.27 | 7.52 | 45
[12] | -11.7 | -11.1 | 15.2 | 12.3 | 74.7
[13] | -1.53 | -2.41 | -0.22 | -2.53 | 54.6
[14] | -3.75 | -2.11 | -2.9 | -0.23 | 36

Conditions | drug sensitivity score
[15] | 0
[16] | 21.1
[17] | 0
[18] | 4.25
[19] | 6.85
[20] | 10.6
[21] | 1.09
[22] | 7.36
[23] | 3.24
[24] | 4.83
[25] | 3.58
[26] | 6.2
[27] | 2.7
[28] | 1.7

CN(N=O)C(=O)N[C@@H](C=O)[C@@H](O)[C@H](O)[C@H](O)CO [Streptozocin] (max concentration tested 10000 nM)
percent inhibition of viability [%]
Conditions | 1 nM | 10 nM | 100 nM | 1000 nM | 10000 nM
[1] | -0.04 | 4.41 | 2.61 | 7.51 | 13.9
[2] | -4.65 | -4.39 | -0.36 | -4.36 | -9.4
[3] | -3 | -1.77 | 1.49 | 5.01 | 21.2
[4] | -8.8 | -7.24 | -7.83 | -15.1 | -3.23
[5] | -0.99 | -4.93 | 2.57 | -0.52 | 4.73
[6] | -10.2 | -0.49 | -2.54 | -2.99 | -3.48
[7] | -3.08 | -5.94 | 5.25 | -5.62 | 10.8
[8] | -22.4 | -14.9 | -15.8 | -16.6 | -9.59
[9] | 4.98 | 18.1 | 36.6 | 23.4 | 36.7
[10] | -1.12 | -3.14 | 1.58 | -0.51 | 9.38
[11] | -0.38 | -7.4 | -2.69 | -9.47 | -1.13
[12] | -9.25 | -22.8 | -15.8 | -38.7 | -21.4
[13] | -14.4 | -2.41 | 1.68 | -6.8 | -12.2
[14] | -12.8 | -5.88 | -5.23 | -3.37 | -3

Conditions | drug sensitivity score
[15] | 0.16
[16] | 0
[17] | 1.35
[18] | 0
[19] | 0
[20] | 0
[21] | 0
[22] | 0
[23] | 12.4
[24] | 0
[25] | 0
[26] | 0
[27] | 0
[28] | 0

CCN(CC)CCNC(=O)c1c(C)[nH]c(/C=C2\C(=O)Nc3ccc(F)cc32)c1C [Sunitinib] (max concentration tested 1000 nM)
percent inhibition of viability [%]
Conditions | 0.1 nM | 1 nM | 10 nM | 100 nM | 1000 nM
[1] | -1.15 | -8.6 | -7.99 | -3.78 | 8.28
[2] | -3.26 | -7.9 | -4.27 | 2.22 | 8.72
[3] | -2.84 | -1.04 | -2.36 | -9.74 | -11.7
[4] | -6.44 | -3.5 | -1.64 | -2.65 | 13.1
[5] | -2.13 | -0.89 | -1.78 | -2.5 | -1.47
[6] | -1.8 | -5.15 | -7.66 | -13.8 | -16.3
[7] | -7.84 | -1.57 | -0.53 | -5.09 | 20
[8] | -10.3 | -18.8 | -13.7 | -21.1 | -19
[9] | 5.7 | 4.75 | 3.71 | -18.1 | -44.5
[10] | -1.95 | 0.38 | 0.07 | -2.92 | -1.42
[11] | -9.12 | -5.49 | 0.84 | 2.57 | 11.7
[12] | -1.26 | -12.4 | 6.63 | 10.2 | 8.42
[13] | -6.76 | -0.63 | -6.25 | -4.61 | 11.7
[14] | -5.22 | -2.41 | -6.25 | -3.39 | 0.3

Conditions | drug sensitivity score
[15] | 0
[16] | 0
[17] | 0
[18] | 0.06
[19] | 0
[20] | 0
[21] | 0.4
[22] | 0
[23] | 0
[24] | 0
[25] | 0.13
[26] | 0.08
[27] | 0
[28] | 0
